In one test the test system is LTP. Particulars: cited from earlier work.
Test [1] addresses T1, human 5-HT1A receptor (Homo sapiens, UniProt P08908).
T1 construct: expressed in transfected cells; host or cells: CHO cells (stably transfected)
T1 sequence (P08908 1-422): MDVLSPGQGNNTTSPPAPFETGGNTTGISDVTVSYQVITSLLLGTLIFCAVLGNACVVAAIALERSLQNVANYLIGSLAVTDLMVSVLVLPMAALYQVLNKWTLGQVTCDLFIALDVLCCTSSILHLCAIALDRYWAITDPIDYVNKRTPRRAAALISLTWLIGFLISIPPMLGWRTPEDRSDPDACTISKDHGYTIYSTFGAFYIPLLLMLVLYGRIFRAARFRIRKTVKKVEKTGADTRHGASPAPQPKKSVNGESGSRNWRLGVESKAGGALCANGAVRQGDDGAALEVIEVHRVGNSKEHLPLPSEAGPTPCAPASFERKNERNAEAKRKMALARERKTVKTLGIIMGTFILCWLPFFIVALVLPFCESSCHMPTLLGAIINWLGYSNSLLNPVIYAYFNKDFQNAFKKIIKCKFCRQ
Nature of the test: Displacement of [3H] 8-OHDPAT from the 5-HT1A receptor in transfected CHO cells. The class given is binding. Particulars: displacement of [3H] 8-OHDPAT; CHO cells stably transfected with the human 5-HT1A receptor; read-out: 5-HT1A Affinity (IC50). From the text:
Affinity for the serotonin 5-HT1A receptor was established by assaying the test compound's ability to displace [^3H] 8-OHDPAT from its binding site on the receptor complex in CHO cells stably transfected with the human 5-HT1A receptor following the procedure described by J. Dunlop, Y. Zhang, D. Smith and L. Schechter (Eur. J. Pharmacol., submitted; variation of a procedure described by J. Zgombick et al., Naunyn-Schmiedeberg's Arch. Pharmacol., 354, 226-236 (1996)).

Test [2] deals with T1, human 5-HT1A receptor. As to the kind of experiment: Agonist activity: inhibition of forskolin-stimulated cAMP accumulation in transfected CHO cells. The test is classed as cell-based. The following applies: CHO cells with human 5-HT1A receptor. From the text:
Methods, 40, 47-55 (1998); variation of a procedure described by J. Zgombick et al., Naunyn-Schmiedeberg's Arch. Pharmacol., 354, 226-236 (1996)].

In test [3] the test system is cognitive deficits induced by fornix lesions. Particulars: marmosets; cited from earlier work.
The test system of another test is PC3 cell line. The following applies: athymic nude mice; cited from earlier work.
Test [4] deals with human prostate tumor cell lines PC3, DU-145 and LNCaP. Particulars: PC3, DU-145 and LNCaP in vitro; cited from earlier work.
Another test has as its system antidepressant response. The following applies: clinical trials; co-administration with the SSRI's paroxetine and fluoxetine; cited from earlier work.
A further test relates to depression. Particulars: in vivo; cited from earlier work.
The test system of test [5] is impairment of spatial learning caused by intrahippocampal scopolamine. Particulars: cited from earlier work.
Test [6] has as its system motion sickness and xylazine- and cis-platinin-induced vomiting. Particulars: cited from earlier work.

For the compound `COc1ccccc1N1CCN(CCCCN2C(=O)c3ccccc3C2=O)CC1` [NAN-190], in the test on LTP, the “effect on LTP” value was “augment LTP”. In the case of `COc1ccccc1C1CCN(C[C@@H](CC2CCCCC2)NC(=O)C2CCCCC2)CC1` [Example 15, Cyclohexanecarboxylic Acid {(1R)-1-Cyclohexylmethyl-2-[4-(2-methoxyphenyl)-piperidin-1-yl]-ethyl}-amide], on human 5-HT1A receptor [1], the IC50 stood at 1.08 nM. For the same compound, the EC50 on human 5-HT1A receptor [2] is 3.9 nM.

Take `COc1ccccc1N1CCN(CCN(C(=O)C2CCCCC2)c2ccccn2)CC1` [WAY-100635]: the “effect on cognitive deficits induced by fornix lesions” value in test [3] is on record as “reversed the cognitive deficits”. As to `O=C(N[C@H](CC1CCCCC1)CN1CCN(c2nc3ccccc3s2)CC1)C1CCCCC1` [Example 13, Cyclohexanecarboxylic Acid {(1R)-1-Cyclohexylmethyl-2-[4-(benzothiazol-2-yl)-piperazin-1-yl]-ethyl}-amide], the IC50 on human 5-HT1A receptor [1] worked out at 2.96 nM. In addition, at human 5-HT1A receptor [2], the EC50 was 4.8 nM.

On to pindobind, for which, in the test with PC3 cell line, the “growth of PC3 cell line in vivo” value was “inhibited the growth”. The “antineoplastic activity in vitro” value in test [4] was “antineoplastic activity”. As for `COc1cccc(N2CCN(C[C@H](CC3CCCCC3)NC(=O)C3CCCCC3)CC2)n1` [Example 12, Cyclohexane Carboxylic Acid {(1S)-1-Cyclohexylmethyl-2-[4-(6methoxypyridin-2-yl)-piperazin-1-yl]-ethyl}-amide], on human 5-HT1A receptor [1], the IC50 was found to be 4.14 nM. Moreover, on human 5-HT1A receptor [2], the 50% effective concentration (EC50) amounted to 14.8 nM. With `CC(C)NCC(O)COc1cccc2[nH]ccc12` (stereo not drawn) [pindolol], the “median time needed to achieve a sustained antidepressant response” value in the test with antidepressant response is reported as “significantly reduced the median time”. `O=C(N[C@H](CC1CCCCC1)CN1CCN(c2ncccn2)CC1)C1CCC1` [Example 11, Cyclobutane Carboxylic Acid {(1R)-1-Cyclohexylmethyl-2-[4-(pyrimidin-2-yl)-piperazin-1-yl]-ethyl}-amide]: the half-maximal inhibitory concentration (IC50) on human 5-HT1A receptor [1] came to 2.4 nM. In addition, at human 5-HT1A receptor [2], the EC50 was 21.7 nM. Turning to `O=C1CC2(CCCC2)CC(=O)N1CCCCN1CCN(c2ncccn2)CC1` [Buspirone, buspirone], the antidepressant activity entry in the test with depression is listed as “weak antidepressant activity”.

For `COc1ccccc1N1CCN(CC(C(=O)NC(C)(C)C)c2ccccc2)CC1` (stereo not drawn) [WAY-100135], the “effect on impairment of spatial learning” value in test [5] is “prevented the impairment of spatial learning”. Consider `COc1ccccc1N1CCN(C[C@@H](CC2CCCCC2)NC(=O)C2CCCCC2)CC1` [Example 1, Cyclohexanecarboxylic Acid {(1R)-1-Cyclohexylmethyl-2-[4-(2-methoxyphenyl)-piperazin-1-yl]-ethyl}-amide], for which the IC50 on human 5-HT1A receptor [1] was found to be 0.57 nM. On human 5-HT1A receptor [2], this compound came in with an EC50 of 0.5 nM. As for `O=C(NCCN1CCN(c2cccc3c2OC[C@H](CO)O3)CC1)c1ccc(F)cc1` [Flesinoxan], the “antiemetic activity in animal models” value in test [6] was “particularly active”.

The values are drawn from patent publication US6518272B2, “Cycloalkyl-substituted aryl-piperazines, piperidines and tetrahydropyridines as serotonergic agents” (Wyeth, priority 1998, dated 2003).
